Consider 25 compounds from patent US20250313548A1 (Actio Biosciences, Inc., priority 2023, published 2025).

human, KCNT1, sequence (Q5JUK3 whole entry): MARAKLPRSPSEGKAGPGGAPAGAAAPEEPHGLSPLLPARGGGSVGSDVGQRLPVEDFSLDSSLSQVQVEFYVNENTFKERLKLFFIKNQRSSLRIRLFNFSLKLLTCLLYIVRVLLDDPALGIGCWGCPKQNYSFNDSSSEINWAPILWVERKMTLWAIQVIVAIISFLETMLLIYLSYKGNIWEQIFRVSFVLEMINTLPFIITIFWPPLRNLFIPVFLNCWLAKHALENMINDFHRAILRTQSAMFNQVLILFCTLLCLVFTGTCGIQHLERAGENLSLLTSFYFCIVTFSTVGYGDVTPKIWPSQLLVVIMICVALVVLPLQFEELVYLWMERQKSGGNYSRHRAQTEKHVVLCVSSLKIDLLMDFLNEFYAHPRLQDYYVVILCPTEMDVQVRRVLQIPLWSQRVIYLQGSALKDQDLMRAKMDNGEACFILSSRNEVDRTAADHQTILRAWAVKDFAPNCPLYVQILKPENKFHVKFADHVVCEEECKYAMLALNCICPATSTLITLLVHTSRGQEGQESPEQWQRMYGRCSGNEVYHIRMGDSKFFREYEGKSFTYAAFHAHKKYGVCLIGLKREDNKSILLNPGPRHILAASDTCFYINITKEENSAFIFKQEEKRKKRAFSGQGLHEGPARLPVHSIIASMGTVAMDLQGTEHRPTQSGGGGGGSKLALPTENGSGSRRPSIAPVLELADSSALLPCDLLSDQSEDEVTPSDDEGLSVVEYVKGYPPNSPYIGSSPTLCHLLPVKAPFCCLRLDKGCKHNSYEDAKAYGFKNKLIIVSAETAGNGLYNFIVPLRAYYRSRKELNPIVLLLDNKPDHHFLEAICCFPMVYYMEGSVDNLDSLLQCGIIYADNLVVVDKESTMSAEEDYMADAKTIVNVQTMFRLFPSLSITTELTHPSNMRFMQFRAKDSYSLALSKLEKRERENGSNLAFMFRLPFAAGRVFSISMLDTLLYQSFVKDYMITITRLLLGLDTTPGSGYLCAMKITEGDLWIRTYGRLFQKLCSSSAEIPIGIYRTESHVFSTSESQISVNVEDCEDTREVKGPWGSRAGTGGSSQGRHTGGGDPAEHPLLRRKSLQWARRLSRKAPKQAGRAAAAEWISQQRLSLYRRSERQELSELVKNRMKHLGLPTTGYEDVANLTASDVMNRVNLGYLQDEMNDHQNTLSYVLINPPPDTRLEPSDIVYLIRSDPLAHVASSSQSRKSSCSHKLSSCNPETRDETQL

For this test, the target named is human, KCNT1 (Homo sapiens (Human), UniProt Q5JUK3). As to the kind of experiment: FLIPR Tl/K Flux Assay. It counts as cell-based. The note with it: HEK293 cells stably expressing human KCNT1; Tl+ flux stimulated with EC80 of agonist Loxapine. The procedure:
HEK293 cells stably expressing human, KCNT1 were cultured in DMEM, 10% FBS, 100 U/mL penicillin-streptomycin and […] puromycin for selection purposes. One day before the assay, cells were detached using TrypLE™ Express and counted using a cell counter. Only cells with >85% viability were used for the assay. […] The cells were incubated overnight at 37° C., 5% (v/v) CO2.
On the day of the assay, the reagents were prepared following the FLIPR® Potassium Assay Kit manual: prepare 2× dye solution, dilute the dye with assay buffer (20 mM HEPES in 1× HBSS, PH7.4), addition of probenecid to a final concentration of 5 mM, and vortexed vigorously for 1-2 minutes. The cell plate was flicked to remove medium and tapped on paper towels to remove excess media. […] The cell plate was moved to a plate shaker, agitated at 600 rpm for two minutes, and then incubated at 25° C. for one hour.
The compounds were prepared in DMSO and transferred to a 384-well compound plate (PP, low binding), referred to as a source plate. Reference agonist (300 nM) compound and test inhibitor (10 mM) compounds were added to the compound plate and a 4-fold serial dilution was performed in DMSO. Using an ECHO dispenser, compounds were dispensed at 90 nL/well from the source plate to a 384-well compound plate (PP, low binding). After the dispensing was complete, 30 µL/well assay buffer was added to the compound plate and mixed for two minutes on a plate shaker. The cell plate, compound plate, and tips were loaded into the FLIPR instrument, and a transfer of 10 μl of 3× compound to the cell plate was initiated. The treated cell plate was kept at in the dark at 25° C. for 30 minutes. Chloride-free stimulation buffer containing 4× 2 mM Tl+ and 4×EC80 of agonist Loxapine was loaded into a 384-well compound plate (PP, low binding). After the 30-minute incubation, the cell plate, compound plate containing stimulation buffer, and FLIPR tips were loaded into the FLIPR instrument. After a baseline read, the FLIPR initiates a transfer of 10 μL of stimulation buffer containing Loxapine to the cell plate. The plate was read for 160 sec with 1 second interval reads to obtain the data.
The normalized fluorescence reading (RFU) was calculated as shown follow, while Fmax and Fmin stand for maximum and minimum of signal during defined time window. The IC50 was calculated by fitting % inhibition against log of compound concentrations with Hill equation using XLfit.
One may read the IC50 as the midpoint of a concentration-inhibition curve. Read a high IC50 as a need for much substance. `O=C(N[C@H]1CCCc2oc(-c3cc(C4CC4)ncc3F)nc21)c1cncc(C(F)(F)F)n1` [Compound I-208a, (S)-N-(2-(2-Cyclopropyl-5-fluoropyridin-4-yl)-4,5,6,7-tetrahydrobenzo[d]oxazol-4-yl)-6-(trifluoromethyl)pyrazine-2-carboxamide]: the IC50 was < 250 nM. As for `COc1cc(C(=O)N[C@H]2CCCn3nc(-c4ccnc(C(F)(F)F)c4)cc32)c(F)cn1` [Compound I-420a], the half-maximal inhibitory concentration (IC50) was < 250 nM. With `CCOc1cc(C(=O)N[C@H]2CCn3nc(-c4ccnc(C5CC5)c4)cc32)ccn1` [Compound I-541a, (S)-N-(2-(2-Cyclopropylpyridin-4-yl)-5,6-dihydro-4H-pyrrolo[1,2-b]pyrazol-4-yl)-2-ethoxyisonicotinamide] the figure was < 250 nM; with `N#CC12CC(C(=O)N[C@H]3CCn4nc(-c5ccnc(C(F)(F)F)c5)cc43)(C1)C2` [Compound I-491a, (S)-3-Cyano-N-(2-(2-(trifluoromethyl)pyridin-4-yl)-5,6-dihydro-4H-pyrrolo[1,2-b]pyrazol-4-yl)bicyclo[1.1.1]pentane-1-carboxamide], 500 to 1000 nM; with `Cc1cc(C#N)cc(C(=O)N[C@@H]2CCn3nc(-c4cc(C(F)(F)F)ncc4F)cc32)c1` [Compound I-486b], 250 to 500 nM. With `O=C(N[C@H]1CCn2nc(-c3ccnc(C(F)(F)F)c3)cc21)C1CC(C(F)(F)F)C1` (stereo partly drawn) [Compound I-147a, (S)-3-(Trifluoromethyl)-N-(2-(2-(trifluoromethyl)pyridin-4-yl)-5,6-dihydro-4H-pyrrolo[1,2-b]pyrazol-4-yl)cyclobutane-1-carboxamide] the figure was < 250 nM; with `O=C(NC1CCCc2nn(-c3ccnc(C(F)(F)F)c3)cc21)c1ccccc1` (racemic) [Compound I-13, (rac)-N-(2-(2-(Trifluoromethyl)pyridin-4-yl)-4,5,6,7-tetrahydro-2H-indazol-4-yl)benzamide], < 250 nM; with `O=C(N[C@H]1CCn2nc(-c3ccnc(C4CC4)c3)cc21)c1ccc(C(F)(F)F)nc1` [Compound I-66a], < 250 nM. For the compound `CCOc1cc(-n2cc3c(n2)CCCC3NC(=O)c2cc(Cl)cc(C(F)(F)F)c2)ccn1` (racemic) [Compound I-14, (rac)-3-Chloro-N-(2-(2-ethoxypyridin-4-yl)-4,5,6,7-tetrahydro-2H-indazol-4-yl)-5-(trifluoromethyl)benzamide], the half-maximal inhibitory concentration (IC50) was < 250 nM.

Consider `O=C(N[C@H]1CCn2nc(-c3ccnc(C(F)(F)F)c3)cc21)c1cnn(C(F)(F)F)c1` [Compound I-573a, (S)-1-(Trifluoromethyl)-N-(2-(2-(trifluoromethyl)pyridin-4-yl)-5,6-dihydro-4H-pyrrolo[1,2-b]pyrazol-4-yl)-1H-pyrazole-4-carboxamide], for which the IC50 is < 250 nM. With `O=C(N[C@H]1CCn2nc(-c3ccnc(C(F)(F)F)c3)cc21)c1ccn2nccc2c1` [Compound I-550a, (S)-N-(2-(2-(Trifluoromethyl)pyridin-4-yl)-5,6-dihydro-4H-pyrrolo[1,2-b]pyrazol-4-yl)pyrazolo[1,5-a]pyridine-5-carboxamide] the figure was < 250 nM; with `Cn1nc(C(F)(F)F)cc1C(=O)N[C@H]1CCCn2nc(-c3ccnc(C4CCC4)c3)cc21` [Compound I-377a], < 250 nM. With `O=C(N[C@H]1CCCc2oc(-c3ccnc(C(F)(F)F)c3)nc21)c1cn(C(F)(F)F)nc1C(F)(F)F` [Compound I-520a, (S)-1,3-bis(trifluoromethyl)-N-(2-(2-(trifluoromethyl)pyridin-4-yl)-4,5,6,7-tetrahydrobenzo[d]oxazol-4-yl)-1H-pyrazole-4-carboxamide] the figure was < 250 nM; with `O=C(N[C@H]1CCCn2nc(-c3ccnc(C(F)(F)F)c3)cc21)c1cc(Cl)cc(C(F)(F)F)c1` [Compound I-352a], < 250 nM; with `Cc1nc(C(=O)N[C@H]2CCn3nc(-c4ccnc(C(C)(F)F)c4)cc32)n(C)n1` [Compound I-206a, (S)-N-(2-(2-(1,1-Difluoroethyl)pyridin-4-yl)-5,6-dihydro-4H-pyrrolo[1,2-b]pyrazol-4-yl)-1,3-dimethyl-1H-1,2,4-triazole-5-carboxamide], > 1000 nM. As for `Cn1nc(C(F)(F)F)nc1C(=O)N[C@H]1CCCn2nc(-c3cc(C4CC4)ncc3F)cc21` [Compound I-495a, (S)-N-(2-(2-Cyclopropyl-5-fluoropyridin-4-yl)-4,5,6,7-tetrahydropyrazolo[1,5-a]pyridin-4-yl)-1-methyl-3-(trifluoromethyl)-1H-1,2,4-triazole-5-carboxamide], the figure is < 250 nM; as for `O=C(N[C@H]1CCCc2oc(-c3ccnc(C4CC4)c3)nc21)c1cncc(F)c1` [Compound I-132a, (S)-N-(2-(2-Cyclopropylpyridin-4-yl)-4,5,6,7-tetrahydrobenzo[d]oxazol-4-yl)-5-fluoronicotinamide], < 250 nM; as for `O=C(N[C@H]1CCCn2nc(-c3cc(C4CC4)ncc3F)cc21)c1ccnc(OC(F)(F)F)c1` [Compound I-498a, (S)-N-(2-(2-Cyclopropyl-5-fluoropyridin-4-yl)-4,5,6,7-tetrahydropyrazolo[1,5-a]pyridin-4-yl)-2-(trifluoromethoxy)isonicotinamide], < 250 nM.

As to `O=C(N[C@H]1CCCn2nc(-c3cc(C(F)(F)F)ncc3F)cc21)c1cncc(C(F)(F)F)n1` [Compound I-204a, (S)-N-(2-(5-Fluoro-2-(trifluoromethyl)pyridin-4-yl)-4,5,6,7-tetrahydropyrazolo[1,5-a]pyridin-4-yl)-6-(trifluoromethyl)pyrazine-2-carboxamide], the IC50 is < 250 nM.

`COC12CC(C(=O)N[C@H]3CCn4nc(-c5cc(C(F)(F)F)ncc5F)cc43)(C1)C2` [Compound I-525a, (S)-N-(2-(5-Fluoro-2-(trifluoromethyl)pyridin-4-yl)-5,6-dihydro-4H-pyrrolo[1,2-b]pyrazol-4-yl)-3-methoxybicyclo[1.1.1]pentane-1-carboxamide]: the half-maximal inhibitory concentration (IC50) is < 250 nM. On to `COc1cc(-c2nc3n(n2)CCC[C@@H]3NC(=O)c2cc(C(F)(F)F)nn2C)ccn1` [Compound I-260a, (S)—N-(2-(2-Methoxypyridin-4-yl)-5,6,7,8-tetrahydro-[1,2,4]triazolo[1,5-a]pyridin-8-yl)-1-methyl-3-(trifluoromethyl)-1H-pyrazole-5-carboxamide], for which the IC50 lay within 250 to 500 nM. `O=C(N[C@H]1CCCn2nc(-c3ccnc(C(F)(F)F)c3)cc21)c1ccnn1CC(F)F` [Compound I-403a]: the IC50 is < 250 nM. As for `COc1cc(C(=O)N[C@H]2CCCc3oc(-c4ccnc(C(F)(F)F)c4)nc32)ccn1` [Compound I-299a], the figure is < 250 nM; as for `O=C(N[C@H]1CCCn2nc(-c3cc(C(F)(F)F)ncc3F)cc21)c1ccnc(OC(F)(F)F)c1` [Compound I-199a, (S)-N-(2-(5-Fluoro-2-(trifluoromethyl)pyridin-4-yl)-4,5,6,7-tetrahydropyrazolo[1,5-a]pyridin-4-yl)-2-(trifluoromethoxy)isonicotinamide], < 250 nM; as for `Cn1nc(C(F)(F)F)nc1C(=O)N[C@H]1CCCc2oc(-c3ccnc(C4CC4)c3)nc21` [Compound I-229a, (S)-N-(2-(2-Cyclopropylpyridin-4-yl)-4,5,6,7-tetrahydrobenzo[d]oxazol-4-yl)-1-methyl-3-(trifluoromethyl)-1H-1,2,4-triazole-5-carboxamide], < 250 nM.
